# Assays:
# Assay type in all cases: cell-based
# Details in all cases: for Expected inhibition: Ee, Limpel formula; for Synergy: Io-Ee
# Candida albicans [1] = test: Antifungal growth assay, defensin plus chemical fungicide; parameters: key to Synergy: Io-Ee in % inhibition points; <15 none, 15-30 low, 30-60 medium, >60 high
# Protocol: Chemical fungicides were sourced commercially and were prepared as 10× stock solutions in H2O (caspofungin and fenpropimorph) or as a 100× stock in methanol (terbinafine).
# (§1) Spores are isolated from sporulating fungus spp. growing on yeast extract peptone dextrose agar (Candida albicans, Cryptococcus gattii—1.5×10^6) or ½ strength Sabouraud dextrose agar (Trichophyton interdigitale, Microsporum fulvum—5×10^4). Spores are removed from the plates by the addition of ½ strength potato dextrose broth (PDB). Spore concentrations are measured using a haemocytometer.
# (§2) Antifungal assays were conducted in 96 well microtitre plates. Wells were loaded with 10 μL of filter sterilized (0.22 μm syringe filter, Millipore) defensin (10× stock for each final concentration) or water, 10 μL, of filter sterilized (0.22 μm syringe filter, Millipore) proteinase inhibitor or chemical fungicide (10× stock for each final concentration) or water and 80 μL of 5×10^3 spores/mL in ½ strength PDB. The plates were incubated at 24° C. Fungal growth was assayed by measuring optical density at 595 nm (A595) using a microtitre plate reader (SpectraMax Pro M2; Molecular Devices. Growth was allowed to proceed until the optical density (OD) of the fungus in the absence of any test defensin reached an OD of 0.2. Each test was performed in duplicate.
# (§3) Synergy is classified as the difference between the observed % fungal growth inhibition caused by the combination of a defensin and a proteinase inhibitor (or a defensin and a chemical fungicide) (Io value) and the expected % fungal growth inhibition of the defensin and the proteinase inhibitor (or the defensin and the chemical fungicide) based on the sum of the % fungal growth inhibition of the defensin and the proteinase inhibitor (or the defensin and the chemical fungicide) on their own (Ee value calculated according to the Limpel formula used by Richer et al. (1987) supra). The difference, Io-Ee, is the synergy value. A synergy value up to 15 means no significant synergy; 15-30 is a low level of synergy; 30-60 is a medium level of synergy; and >60 is a high level of synergy. Synergy calculations are presented in Tables 2 through 7 wherein, as indicated above, Ee is the expected effect from the additive response according to Limpel's formula expressed as percent inhibition and To is the percent inhibition observed. Synergy occurs when To values are higher than Ee values.
# Candida albicans [2] = test: Antifungal growth assay, defensin plus proteinase inhibitor; parameters: key to Synergy: Io-Ee in % inhibition points; >60 high synergy, <15 none
# Protocol: as §1, §2, §3
# [3] = tested on: Trichophyton interdigitale; test: as above
# Protocol: as §1, §2, §3
# [4] = non-permeabilizing defensin 1 μM + Caspofungin (2 ng/ml)
# [5] = defensin 4 μM + BPTI (0.625 μM)
# [6] = defensin 4 μM + HyCPI6 (2.5 μM)
# [7] = defensin 0.5 μM + BPTI (0.625 μM)
# [8] = defensin 0.5 μM + HvCPI6 (2.5 μM)
# [9] = defensin 0.5 μM + SlCys9N (2.5 μM)
# [10] = defensin 2.5 μM + Caspofungin (4 ng/ml)
# [11] = defensin 4 μM + SlCys9N (2.5 μM)
# [12] = defensin 2 μM + BPTI (0.625 μM)
# [13] = defensin 2 μM + HyCPI6 (2.5 μM)
# [14] = defensin 2 μM + SlCys9N (2.5 μM)
# [15] = permeabilizing defensin 1 μM + Caspofungin (2 ng/ml)
# [16] = defensin 2 μM + Fenpropimorph (2 ug/ml)
# [17] = defensin 1 μM + BPTI (0.625 μM)
# [18] = defensin 1 μM + HyCPI6 (2.5 μM)
# [19] = defensin 1 μM + SlCys9N (2.5 μM)
# [20] = defensin 1 μM + Fenpropimorph (2 ug/ml)
substance,measurement,setting,value
"RsAFP2: non-permeabilizing defensin used as comparison (QKLCQRPSGTWSGVCGNNNACKNQCIRLEKARHGSCNYVFPAHKCICYFPC; UniProt P30230 30-80, looked up) [reference compound]",Observed inhibition,Candida albicans [1]; [4],19.0%
same,Expected inhibition,Candida albicans [1]; [4],1.7%
same,Synergy,Candida albicans [1]; [4],17.3
"HXL001: Class I permeabilizing plant defensin, mature protein SEQ ID NO:26 (RHCLSQSHRFKGLCMSSNNCANVCQTENFPGGECKAEGATRKCFCKKIC; HXL001 Zea mays)",Observed inhibition,Candida albicans [2]; [5],72.6%
same,Expected inhibition,Candida albicans [2]; [5],2.6%
same,Synergy,Candida albicans [2]; [5],70.1
same,Observed inhibition,Candida albicans [2]; [6],84.2%
same,Expected inhibition,Candida albicans [2]; [6],59.2%
same,Synergy,Candida albicans [2]; [6],25.0
same,Observed inhibition,Candida albicans [2]; defensin 4 μM + SlCys9N (2 μM),85.0%
same,Expected inhibition,Candida albicans [2]; defensin 4 μM + SlCys9N (2 μM),68.1%
same,Synergy,Candida albicans [2]; defensin 4 μM + SlCys9N (2 μM),16.9
same,Observed inhibition,[3]; [7],67.4%
same,Expected inhibition,[3]; [7],36.9%
same,Synergy,[3]; [7],30.5
same,Observed inhibition,[3]; [8],84.7%
same,Expected inhibition,[3]; [8],32.5%
same,Synergy,[3]; [8],52.2
same,Observed inhibition,[3]; [9],70.2%
same,Expected inhibition,[3]; [9],16.8%
same,Synergy,[3]; [9],53.4
same,Observed inhibition,Candida albicans [1]; [10],73.4%
same,Expected inhibition,Candida albicans [1]; [10],11.7%
same,Synergy,Candida albicans [1]; [10],61.7
"HXL012: Class I permeabilizing plant defensin, mature protein SEQ ID NO:25 (RMCKAPSKLFRGMCGIRDSNCDSVCRAEGMAAGDCHGLRRRCICSRPC; HXL012 Amaranthus retroflexus)",Observed inhibition,Candida albicans [2]; [5],89.7%
same,Expected inhibition,Candida albicans [2]; [5],14.8%
same,Synergy,Candida albicans [2]; [5],74.9
same,Observed inhibition,Candida albicans [2]; [6],100.0%
same,Expected inhibition,Candida albicans [2]; [6],12.3%
same,Synergy,Candida albicans [2]; [6],87.7
same,Observed inhibition,Candida albicans [2]; [11],97.3%
same,Expected inhibition,Candida albicans [2]; [11],34.5%
same,Synergy,Candida albicans [2]; [11],62.8
same,Observed inhibition,Candida albicans [1]; [10],51.2%
same,Expected inhibition,Candida albicans [1]; [10],0%
same,Synergy,Candida albicans [1]; [10],51.2
"HXL004: Class I permeabilizing plant defensin, mature protein SEQ ID NO:28 (RTCESQSHRFKGLCFSRSNCASVCHTEGFNGGHCRGFRRRCFCTRHC; HXL004 Nicotiana benthamiana)",Observed inhibition,Candida albicans [2]; [12],91.2%
same,Expected inhibition,Candida albicans [2]; [12],9.6%
same,Synergy,Candida albicans [2]; [12],81.6
same,Observed inhibition,Candida albicans [2]; [13],93.5%
same,Expected inhibition,Candida albicans [2]; [13],63.6%
same,Synergy,Candida albicans [2]; [13],29.9
same,Observed inhibition,Candida albicans [2]; [14],81.8%
same,Expected inhibition,Candida albicans [2]; [14],55.2%
same,Synergy,Candida albicans [2]; [14],26.6
same,Observed inhibition,Candida albicans [1]; [15],92.3%
same,Expected inhibition,Candida albicans [1]; [15],14.0%
same,Synergy,Candida albicans [1]; [15],78.3
"HXL008: Class I permeabilizing plant defensin, mature protein SEQ ID NO:30 (KVCTKPSKFFKGLCGTDGACTTACRKEGLHSGYCQLKGFLNSVCVCRKHC; HXL008 Picramnia pentandra)",Observed inhibition,Candida albicans [2]; [12],100.0%
same,Expected inhibition,Candida albicans [2]; [12],0.0%
same,Synergy,Candida albicans [2]; [12],100.0
same,Observed inhibition,Candida albicans [2]; [13],63.8%
same,Expected inhibition,Candida albicans [2]; [13],14.8%
same,Synergy,Candida albicans [2]; [13],49.0
same,Observed inhibition,Candida albicans [2]; [14],98.9%
same,Expected inhibition,Candida albicans [2]; [14],30.2%
same,Synergy,Candida albicans [2]; [14],68.7
same,Observed inhibition,Candida albicans [1]; [16],87.3%
same,Expected inhibition,Candida albicans [1]; [16],46.7%
same,Synergy,Candida albicans [1]; [16],40.6
"HXL009: Class I permeabilizing plant defensin, mature protein SEQ ID NO:33 (TVCMRHNNFYHGPCMSNKDCANSCVQHNLGVGGYCRGKIPFNKECMCTFEC; HXL009)",Observed inhibition,Candida albicans [1]; [10],65.2%
same,Expected inhibition,Candida albicans [1]; [10],3.7%
same,Synergy,Candida albicans [1]; [10],61.5
"HXL002: Class I permeabilizing plant defensin, mature protein SEQ ID NO:27 (RDCLSQSHKFKGACLSSSNCAAVCRTENFPDGECHTHNFARKCFCKRAC; HXL002 Triticum aestivum)",Observed inhibition,Candida albicans [1]; [10],40.8%
same,Expected inhibition,Candida albicans [1]; [10],6.1%
same,Synergy,Candida albicans [1]; [10],34.7
"HXL015: Class I permeabilizing plant defensin, mature protein SEQ ID NO:32 (RHCLSQSHRFKGMCVSSNNCANVCRTESFPDGECKSHGLERKCFCKKVC; HXL015 Oryza sativa)",Observed inhibition,Candida albicans [2]; [17],100.0%
same,Expected inhibition,Candida albicans [2]; [17],28.1%
same,Synergy,Candida albicans [2]; [17],71.9
same,Observed inhibition,Candida albicans [2]; [18],100.0%
same,Expected inhibition,Candida albicans [2]; [18],0.0%
same,Synergy,Candida albicans [2]; [18],100.0
same,Observed inhibition,Candida albicans [2]; [19],94.7%
same,Expected inhibition,Candida albicans [2]; [19],0.0%
same,Synergy,Candida albicans [2]; [19],94.7
same,Observed inhibition,Candida albicans [1]; [20],71.8%
same,Expected inhibition,Candida albicans [1]; [20],19%
same,Synergy,Candida albicans [1]; [20],52.8
"HXL013: Class I permeabilizing plant defensin, mature protein SEQ ID NO:31 (KDCLTRRHGFQGRCLFDRQCAHVCRSDGFIGGQCRGPLRKCFCSRPC; HXL013 glycine max)",Observed inhibition,Candida albicans [2]; [18],100.0%
same,Expected inhibition,Candida albicans [2]; [18],10.1%
same,Synergy,Candida albicans [2]; [18],89.9
same,Observed inhibition,Candida albicans [2]; [19],100.0%
same,Expected inhibition,Candida albicans [2]; [19],13.8%
same,Synergy,Candida albicans [2]; [19],86.2
same,Observed inhibition,Candida albicans [1]; [15],90.8%
same,Expected inhibition,Candida albicans [1]; [15],4.3%
same,Synergy,Candida albicans [1]; [15],86.5
